Laboratory results published in patent US20130252944A1, “NOVEL FUSED PYRAZOLE DERIVATIVES AND THEIR USE AS ALLOSTERIC MODULATORS OF METABOTROPIC GLUTAMATE RECEPTORS” (priority 2010, published 2013).

These compounds were tested against T1, recombinant human mGluR4a receptors (Homo sapiens, UniProt Q14833) (assay: Fluorescent cell based Ca2+ mobilization assay (FLIPR) on HEK-293 cells expressing human mGluR4). Settings: positive allosteric modulation in presence of EC25 glutamate; HEK-293 hmGluR4; mean of at least three independent experiments in duplicate; read-out: Ca^2+ Flux (mean EC50).
T1 construct: expressed in transfected cells
T1 sequence (Q14833 33-912): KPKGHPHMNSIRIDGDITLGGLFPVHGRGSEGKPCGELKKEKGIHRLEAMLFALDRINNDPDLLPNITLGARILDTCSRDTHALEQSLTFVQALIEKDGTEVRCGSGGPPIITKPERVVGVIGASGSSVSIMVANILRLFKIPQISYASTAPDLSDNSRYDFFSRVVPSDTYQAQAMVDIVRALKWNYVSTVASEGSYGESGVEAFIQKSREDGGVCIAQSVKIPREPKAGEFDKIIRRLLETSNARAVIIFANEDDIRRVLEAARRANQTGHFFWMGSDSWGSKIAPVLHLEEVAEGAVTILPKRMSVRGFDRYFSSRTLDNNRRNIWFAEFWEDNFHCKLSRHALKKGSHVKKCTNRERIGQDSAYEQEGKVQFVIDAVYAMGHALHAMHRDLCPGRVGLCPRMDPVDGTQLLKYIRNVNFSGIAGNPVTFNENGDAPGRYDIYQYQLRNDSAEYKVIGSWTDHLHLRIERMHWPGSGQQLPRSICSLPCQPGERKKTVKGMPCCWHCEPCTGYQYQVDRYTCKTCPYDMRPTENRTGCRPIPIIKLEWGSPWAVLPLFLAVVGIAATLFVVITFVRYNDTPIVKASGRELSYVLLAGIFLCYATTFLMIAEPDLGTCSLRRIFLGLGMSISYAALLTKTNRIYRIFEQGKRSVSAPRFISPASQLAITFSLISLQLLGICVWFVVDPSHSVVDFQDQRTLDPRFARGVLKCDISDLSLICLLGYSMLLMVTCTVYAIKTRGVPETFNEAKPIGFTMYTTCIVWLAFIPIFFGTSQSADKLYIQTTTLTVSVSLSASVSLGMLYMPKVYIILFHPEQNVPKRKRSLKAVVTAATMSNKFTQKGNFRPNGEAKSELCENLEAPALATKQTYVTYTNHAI
Excerpt: mGluR4 Assay on HEK-Expressing Human mGluR4
The compounds of the present invention are positive allosteric modulators of mGluR4 receptor. Their activity was examined on recombinant human mGluR4a receptors by detecting changes in intracellular Ca^2+concentration, using the fluorescent Ca^2+-sensitive dye Fluo4-(AM) and a Fluorometric Imaging Plate Reader (FLIPR, Molecular Devices, Sunnyvale, Calif.).
The cDNA encoding the human metabotropic glutamate receptor (hmGluR4), (accession number NM_000841.1, NCBI Nucleotide database browser), was subcloned into an expression vector containing also the hygromycin resistance gene. In parallel, the cDNA encoding a G protein allowing redirection of the activation signal to intracellular calcium flux was subcloned into a different expression vector containing also the puromycin resistance gene. Transfection of both these vectors into HEK293 cells with PolyFect reagent (Qiagen) according to supplier's protocol, and hygromycin and puromycin treatment allowed selection of antibiotic resistant cells which had integrated stably one or more copies of the plasmids. Positive cellular clones expressing hmGluR4 were identified in a functional assay measuring changes in calcium fluxes in response to glutamate or selective known mGluR4 orthosteric agonists and antagonists.
HEK-293 cells expressing hmGluR4 were maintained in media containing DMEM, dialyzed Fetal Calf Serum (10%), Glutamax™ (2 mM), Penicillin (100 units/mL), Streptomycin (100 μg/mL), Geneticin (100 μg/mL) and Hygromycin-B (40 μg/mL) and puromycin (1 μg/mL) at 37° C./5% CO2.
Human mGluR4 HEK-293 cells were plated out 24 hours prior to FLIPR^384 assay in black-walled, clear-bottomed, poly-L-ornithine-coated 384-well plates at a density of 25,000 cells/well in a glutamine/glutamate free DMEM medium containing foetal bovine serum (10%), penicillin (100 units/mL) and streptomycin (100 μg/mL) at 37° C./5% CO2.
On the day of the assay, the medium was aspirated and the cells were loaded with a 3 μM solution of Fluo4-AM (LuBioScience, Lucerne, Switzerland) in 0.03% pluronic acid. After 1 hour at 37° C./5% CO2, the non incorporated dye was removed by washing cell plate with the assay buffer and the cells were left in the dark at room temperature for […] before testing. All assays were performed in a pH=7.4 buffered-solution containing 20 mM HEPES, 143 mM NaCl, 6 mM KCl, 1 mM MgSO4, 1 mM CaCl2, 0.125 mM sulfapyrazone and 0.1% glucose.
After 10 s of basal fluorescence recording, various concentrations of the compounds of the invention were added to the cells. Changes in fluorescence levels were first monitored for 180 s in order to detect any agonist activity of the compounds. Then the cells were stimulated by an EC25 glutamate concentration for an additional 110 s in order to measure enhancing activities of the compounds of the invention. EC25 glutamate concentration is the concentration giving 25% of the maximal glutamate response.
The concentration-response curves of representative compounds of the present invention were generated using the Prism GraphPad software (Graph Pad Inc, San Diego, USA). The curves were fitted to a four-parameter logistic equation:
(Y=Bottom+(Top−Bottom)/(1+10̂((LogEC50−X)*Hill Slope)
allowing the determination of EC50 values.
The Table 3 below represents the mean EC50 obtained from at least three independent experiments of selected molecules performed in duplicate.
With `Cc1ccnc(Nc2nc3c(s2)COC(c2ccccn2)c2[nH]ncc2-3)n1` (stereo not drawn) [Compound 1-31, (4-Methyl-pyrimidin-2-yl)-(6-pyridin-2-yl-6,7-dihydro-4H-5-oxa-3-thia-1,7,8-triaza-cyclopenta[e]azulen-2-yl)-amine] the EC50 was < 0.1 µM.
Work on “(6-Isopropyl-6,7-dihydro-4H-5-oxa-3-thia-1,7,8-triaza-cyclopenta[e]azulen-2-yl)-(5-methyl-[1,2,4]thiadiazol-3-yl)-amine [Compound 1-25]” yielded an EC50 of 0.1 to 1 µM.
“Dimethyl-carbamic acid 2-(4-methyl-pyrimidin-2-ylamino)-4,5,6,6a,7,8-hexahydro-3-thia-1,7,8-triaza-cyclopenta[e]azulen-5-yl ester [Compound 1-6]” showed an EC50 of 0.1 to 1 µM.
